This passage reports Ki results from ChEMBL document CHEMBL1139109, “Further studies on the binding of N1-substituted tryptamines at h5-HT6 receptors” (Bioorg Med Chem Lett, 2007).

The target in the experiment is 5-hydroxytryptamine receptor 6 (Homo sapiens, UniProt P50406). The experiment in a line: Displacement of [3H] LSD from human 5HT6 receptor expressed in HEK293 cells. Type of experiment: cell-based.
Sequence of 5-hydroxytryptamine receptor 6 (P50406 whole entry): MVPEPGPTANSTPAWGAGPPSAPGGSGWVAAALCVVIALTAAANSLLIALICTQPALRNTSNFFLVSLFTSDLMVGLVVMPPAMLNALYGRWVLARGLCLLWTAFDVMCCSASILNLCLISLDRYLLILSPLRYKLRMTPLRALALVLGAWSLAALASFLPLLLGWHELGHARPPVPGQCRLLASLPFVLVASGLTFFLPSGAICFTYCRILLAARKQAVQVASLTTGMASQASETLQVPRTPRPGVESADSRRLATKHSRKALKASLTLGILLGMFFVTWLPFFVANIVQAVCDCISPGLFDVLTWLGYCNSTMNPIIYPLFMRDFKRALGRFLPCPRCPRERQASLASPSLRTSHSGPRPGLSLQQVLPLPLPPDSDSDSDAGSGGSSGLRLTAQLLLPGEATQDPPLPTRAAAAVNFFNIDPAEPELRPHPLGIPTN
Consider `CN(C)CCc1cn(Cc2ccc(Cl)cc2)c2ccccc12`, for which the Ki is 20 nM. Under `CN(C)CC1CCCc2c1c1ccccc1n2S(=O)(=O)c1ccccc1` (stereo not given) stands 1.5 nM; under `CN(C)CCc1cn(S(=O)(=O)C2CCCCC2)c2ccccc12`, 210 nM.

Regarding `Cc1ccc(S(=O)(=O)n2cc(CCN(C)C)c3ccccc32)cc1`, the Ki stood at 2.5 nM. For `COc1ccc(S(=O)(=O)n2cc(CCN(C)C)c3ccccc32)cc1` the value was 13 nM; for `Nc1ccc(Cn2c3c(c4ccccc42)CCCC3)cc1`, 6000 nM. Under `CCCCCS(=O)(=O)n1cc(CCN(C)C)c2ccccc21` stands 220 nM; under `Nc1ccc(S(=O)(=O)n2c3c(c4ccccc42)CCCC3)cc1`, 29 nM; under `CN(C)CCc1cn(S(=O)(=O)c2ccc(C(F)(F)F)cc2)c2ccccc12`, 1.9 nM. Consider `CC(C)S(=O)(=O)n1cc(CCN(C)C)c2ccccc21`, for which the Ki was 590 nM. For `CN(C)CCc1cn(Cc2ccc(C(F)(F)F)cc2)c2ccccc12` the value was 445 nM. Under `CN(C)CCc1cn(Cc2ccc(N)cc2)c2ccccc12` stands 44 nM; under `CCCCCCCCS(=O)(=O)n1cc(CCN(C)C)c2ccccc21`, 440 nM; under `CCCS(=O)(=O)n1cc(CCN(C)C)c2ccccc21`, 280 nM.

`Cc1ccc(Cn2cc(CCN(C)C)c3ccccc32)cc1` showed an inhibition constant (Ki) of 29 nM.

Take `COc1ccc(Cn2cc(CCN(C)C)c3ccccc32)cc1`: the Ki was 132 nM. For `CN(C)CC1CCCc2c1c1ccccc1n2Cc1ccccc1` (stereo not given) the value was 136 nM; for `CN(C)CCc1cn(S(=O)(=O)c2ccc(Cl)cc2)c2ccccc12`, 94 nM; for `Nc1ccc(Cn2ccc3ccccc32)cc1`, 8200 nM.

Compound `CCCCS(=O)(=O)n1cc(CCN(C)C)c2ccccc21` came in with a Ki of 135 nM.
